# Assay results published in patent US20100240040A1, “METHOD FOR SCREENING FOR SELECTIVE MODULATOR OF THE NF-KB PATHWAY ACTIVATION” (INSTITUT PASTEUR, priority 2007, published 2010).
# Where a SMILES comes first, the peptide text is derived from it.
# Key:
# NF-κB pathway [1] = assay: NF-κB inhibition assay (β-galactosidase reporter) in 70Z/3-C3 cells; assay type: cell-based; settings: pre-B 70Z3 lymphocytes activated with PMA, IL-1 or LPS; similar for the stimuli; read-out: IC50 of inhibition of the NF-kB pathway
# Protocol: 4.5×10^5 70Z/3-C3 cells in 450 μl of 10% FCS-RPMI (Invitrogen) were incubated with 0-20 μM peptide BA-DR NLM or BA-NLM. After 2 h at 37° C., 200 μl of cell samples were transferred in duplicate to a 96-well micro titer plate. One well was treated for 4 h with either 15 μg/ml LPS, 20 ng/ml IL1-β or 100 ng/ml PMA. A control well was left untreated. After 4 h at 37° C., cells were centrifuged at 400×g for 5 min at room temperature, the pellets were washed three times with cold PBS (200 μl), and the cells were lysed in 100 μl of lysis buffer (25 mM tris-phosphate buffer at pH7.8 containing 8 mM MgCl2, 1 mM dithioerythreitol, 1% Triton X-100, 15% glycerol and a protease inhibitor mixture (Roche Applied Science, ref. 1836145)). The lysate was centrifuged at 1000×g for 20 min at 4° C., and supernatant was kept on ice before performing the β-galactosidase assay. β-galactosidase assays were performed on 50 μl of the supernatant and in an assay mix containing 4 μl of Galacton-star chemiluminescent substrate and 196 μl of reaction buffer (Clonetech). The activity was measured with a plate luminometer (Berthold).
# [2] = target: T1, CC2-LZ interaction with cellular polyubiquitinylated proteins (Mus musculus, UniProt O88522); assay: Pull-down of polyubiquitinylated proteins from JM4.5.2 extracts with biotinylated CC2-LZ, anti-ubiquitin Western blot; assay type: biochemical; settings: 20 μM peptide, extracts of TNF-α stimulated JM4.5.2 cells
# T1 construct: made in house; host or cells: chemical synthesis (bait); crude extract of JM4.5.2 cells with or without TNFα (partners)
# T1 sequence (O88522 253-336): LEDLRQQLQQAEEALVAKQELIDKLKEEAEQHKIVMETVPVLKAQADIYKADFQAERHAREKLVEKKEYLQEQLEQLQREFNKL
# Protocol: 24·10^7 JM4.5.2 cells were stimulated or not with 10 ng/ml of TNFα for 10 minutes at 37° C., washed twice with cold PBS and lysed in 900 μl of lysis buffer containing a protease inhibitor mixture as indicated in Example 1.D. Lysates were clarified at 15 000×g at 4° C. for 30 min. 150 μl of proteins were incubated 2 h at 4° C. with 150 μl of streptavidin magnetic beads (MagPrep®, Novagen) pre-incubated 1 h at 4° C. with 10 μg of biotynilated-CC2-LZ and with or without 20 μM of peptides (BA-NLM or BA-DR NLM). Beads were washed 4 times in buffer A (10 mM Hepes pH 7.5, 150 mM NaCl, 8 mM MgCl2, 10% glycerol, 0.1 mM DDM and 1 mM DTE) and resuspended in 30 μl of laemmli buffer containing 6 M Urea. Samples were analysed by Western blotting using anti-ubiquitin antibodies (Sigma) as well as anti-NDPK-B antibodies for loading controls.
# Thus, the Inventors examined whether DR NLM impedes the interaction between NEMO and the K63 polyubiquitin chains. To this end, they developed a pull down assay which uses the a peptide comprising the CC2 and the LZ domains of NEMO as a bait to pull down the polyubiquitinylated proteins as described in Example 1.J and depicted in FIG. 7A. […] After extensive washing of beads, all mono and polyubiquitinylated proteins bound to CC2-LZ were analysed by Western blot using anti-ubiquitin antibody (Sigma).
# AP1 pathway = assay: AP1-luc reporter assay in Jurkat cells stimulated with PMA and ionomycin; assay type: cell-based, human; settings: 5 μM peptide, T-lymphocytes
# Protocol: (§1) Jurkat T cells (clone 20) were transiently transfected by a DEAE-dextran method with a reporter plasmid containing the luciferase under the control of a promoter inducible by the ERK and p38 pathway (SRE-luc; Courtois et al., 1997, Mol. Cell. Biol, 17:1441-1449), the NF-AT pathway or the API pathway (respectively NF-AT-luc and AP1-luc; Northrop et al., 1993, J. Biol. […]., 268:2917-2923). Briefly, cells were washed and resuspended at 10^7 cells/ml in TBS containing 0.5 mg/ml of DEAE-dextran (Pharmacia). 1 μg per 2·10^6 cells of reporter plasmid was added. After 45 min at room temperature, the cells were diluted with 10 volumes of TBS, centrifuged, and resuspended at 10^6 cells/ml in 10% FCS-RPMI. After 24 h, cells were incubated with or without 5 μM NEMO-derived peptides (BA-NLM or BA-DR NLM) for 2 h. They were stimulated or mock-stimulated with 100 ng/ml PMA and 1 μg/ml ionomycin for 5 h, and finally lysed in luciferase buffer (25 mM Tris-phosphate pH 7.8 containing 8 mM MgCl2, 1 mM DTE, 1% Triton X100, 15% glycerol). Luciferase measurement was carried out in a Berthold Luminometer.
# [3] = target: T2, Lys63-linked polyubiquitin chains (Homo sapiens, UniProt P0CG47); assay: In vitro binding assay by fluorescence polarization to polyubiquitin chains; settings: tag-free peptide
# T2 construct: the Lys63-linked polyubiquitin chains; purchased Boston Biochem
# [4] = Circular dichroism and gel filtration, self-association of peptides; assay type: physicochemical; settings: peptide concentration up to 100 μM; data not shown
# Protocol: Far-UV circular dichroism (CD) measurements were performed with an Aviv 215 spectropolarimeter with samples diluted in 10 mM NaPO4 at pH 7.
# Then, unlike the LZ peptide, DR NLM peptide as well as NLM peptide are unable to self-associate. Self association of LZ peptide is described by Agou et al., 2004b.
# NF-κB pathway [5] = settings: reported in WO 2005/027959; cited from earlier work
# NF-AT pathway = assay: NF-AT-luc reporter assay in Jurkat cells stimulated with PMA and ionomycin; assay type: cell-based, human; settings: 5 μM peptide, T-lymphocytes
# Protocol: as §1
smiles,measurement,setting,value
CC[C@H](C)[C@H](NC(=O)[C@H](CC(=O)O)NC(=O)[C@H](C)NC(=O)[C@H](CCC(N)=O)NC(=O)[C@H](C)NC(=O)[C@H](CCCCN)NC(=O)[C@H](CC(C)C)NC(C)=O)C(=O)N[C@@H](Cc1ccc(O)cc1)C(=O)N[C@@H](CCCCN)C(=O)N[C@@H](C)C(=O)N[C@@H](CCCNC(=N)N)C(=O)N[C@@H](Cc1ccccc1)C(=O)N[C@@H](CCC(N)=O)C(=O)N[C@@H](C)C(=O)N[C@@H](CCC(=O)O)C(=O)N[C@@H](CCCNC(=N)N)C(=O)N[C@@H](Cc1c[nH]cn1)C(=O)N[C@@H](C)C(=O)N[C@@H](CCCNC(=N)N)C(=O)N[C@@H](CCC(=O)O)C(=O)N[C@@H](CCCCN)C(N)=O [DR NLM] (Ac-LKAQADIYKARFQAERHAREK-NH2; N-terminus and C-terminus assumed),IC50,NF-κB pathway [1],900 nM
same,inhibition of CC2-LZ interaction with polyubiquitinylated proteins,[2],abolishes the CC2-LZ interaction with the cellular polyubiquitinylated proteins
same,effect on AP1 pathway,AP1 pathway,does not abrogate
same,cooperativity index (Hill coefficient) n,[3],1
same,Kd,[3]; read-out: dissociation constant for Lys63-linked polyubiquitin chains,250 µM
same,oligomeric state / self-association,[4],behave as monomer
same,inhibition of NF-κB activation,NF-κB pathway [5],inhibit NF-κB activation
same,effect on NF-AT pathway,NF-AT pathway,does not abrogate
